Values joined by “and” are separate entries in the source; they are usually repeats but may differ in a detail not shown here. Equal entries are not always repeated. “Also recorded” adds a separate entry of the source.
Legend:
Isoelectric point = assay type: physicochemical
MCF-7 [1] = assay: Soft agar clonal growth assay, MCF-7; assay type: cell-based, human; details: exogenous AM
MCF-7 [2] = assay: MTT growth assay, MCF-7; assay type: cell-based, human
Procedure: i. Growth Assays: MTT techniques were performed as previously described (Nakanishi, Y. F., et al., Exper. Cell Biol. 56:74-85 (1988)). In brief, a single cell suspension of 2×10^5 cells/ml (50 μl/well) is seeded into 96-well PVC plates and an appropriate concentration of MoAb-G6 and AM was added in a volume of 50 μl. The assay is performed in TIS medium (RMPI 1640 plus 10 μg/ml transferrin, 10 μg/ml insulin and 3×10^−8M sodium selenite). After 5 days growth at 37° C., 5% CO2, in a humid incubator, the dye and solubilization solutions were added from the Promega Proliferation Assay (Madison, Wis.), which is a variation of the MTT assay (Carmichael, Y. F., et al., Cancer Res. 47:943-946 (1987)). The Biorad Microplate Manager plate reader and software was used to determine the change in number of viable cells from dye reduction measured by absorbance at 570 nm.

S. aureus = assay: Micro-/macrodilutional assays, S. aureus; assay type: cell-based, Staphylococcus aureus; details: microdilutional or macrodilutional assays
Procedure: (§1) Inhibition of growth of E. coli was assessed in a microdilutional timed kill assay. (See FIG. 22) Bacteria and Candida albicans were grown overnight on trypticase soy agar (TSA) and Sobouraud dextrose agar (SDA) plates, respectively, were suspended into RPMI-1640 medium (Bio-Whittaker) and adjusted to a final concentration of 8×10^3 cfu/ml in […] in plastic microdilution trays. […] Plates were incubated at 37° C. with gentle agitation over 24 hours. At 6 hr and 24 hr time points, 10 to […] aliquots from each well were quantitatively cultured by serial 100-fold dilutions onto TSA and SDA plates.
(§2) Data were compiled from six experiments. Macrodilution assays were performed in 12×75 mm borosilicate glass tubes. Organisms were grown and harvested, as described in Roilides, E., et al., J Infect Dis. 163:579 (1991), and adjusted to a final inoculum concentration of 8×10^3 cfu/ml in 400 μl. […] Tubes were incubated at 37° C. with gentle agitation over 24 hours. At 6 and 24 hour time points, 100 μl aliquots from each tube were quantitatively cultured by serial 100-fold dilutions onto TSA and SDA plates.

P. aeruginosa = assay: Micro-/macrodilution timed kill assay, P. aeruginosa; assay type: cell-based, Pseudomonas aeruginosa; details: 24 hours exposure compared with 6 hours incubation
Procedure: as §1, §2

E. coli = assay: Microdilutional timed kill assay, E. coli; assay type: cell-based, Escherichia coli
Procedure: Inhibition of growth of E. coli was assessed in a microdilutional timed kill assay. (See FIG. 22) Bacteria and Candida albicans were grown overnight on trypticase soy agar (TSA) and Sobouraud dextrose agar (SDA) plates, respectively, were suspended into RPMI-1640 medium (Bio-Whittaker) and adjusted to a final concentration of 8×10^3 cfu/ml in […] in plastic microdilution trays. AM-related peptides, magainins, and albumin were added in equimolar concentrations ranging from 8 μM to 300 μM. Plates were incubated at 37° C. with gentle agitation over 24 hours. At 6 hr and 24 hr time points, 10 to […] aliquots from each well were quantitatively cultured by serial 100-fold dilutions onto TSA and SDA plates.

C. albicans = assay: Micro-/macrodilutional assay, C. albicans; assay type: cell-based, Candida albicans
Procedure: as §1, §2

In the case of `CC[C@H](C)[C@H](NC(=O)[C@H](CCC(N)=O)NC(=O)[C@H](Cc1c[nH]cn1)NC(=O)[C@H](C)NC(=O)[C@H](CC(C)C)NC(=O)[C@H](CCCCN)NC(=O)[C@H](CCC(N)=O)NC(=O)[C@@H](NC(=O)[C@@H](NC(=O)[C@@H]1CSSC[C@H](NC(=O)CNC(=O)[C@H](Cc2ccccc2)NC(=O)[C@H](CO)NC(=O)[C@H](CCCNC(=N)N)NC(=O)[C@H](CC(C)C)NC(=O)CNC(=O)[C@H](CCC(N)=O)NC(=O)[C@H](Cc2ccccc2)NC(=O)[C@H](CC(N)=O)NC(=O)[C@H](CC(N)=O)NC(=O)[C@H](CCSC)NC(=O)[C@H](CO)NC(=O)[C@H](CCC(N)=O)NC(=O)[C@H](CCCNC(=N)N)NC(=O)[C@@H](N)Cc2ccc(O)cc2)C(=O)N[C@@H](CCCNC(=N)N)C(=O)N[C@@H](Cc2ccccc2)C(=O)NCC(=O)N[C@@H]([C@@H](C)O)C(=O)N1)[C@@H](C)O)C(C)C)C(=O)N[C@@H](Cc1ccc(O)cc1)C(=O)N[C@@H](CCC(N)=O)C(=O)N[C@@H](Cc1ccccc1)C(=O)N[C@H](C(=O)N[C@@H](CC(=O)O)C(=O)N[C@@H](CCCCN)C(=O)N[C@@H](CC(=O)O)C(=O)N[C@@H](CCCCN)C(=O)N[C@@H](CC(=O)O)C(=O)N[C@@H](CC(N)=O)C(=O)N[C@H](C(=O)N[C@@H](C)C(=O)N1CCC[C@H]1C(=O)N[C@@H](CCCNC(=N)N)C(=O)N[C@@H](CO)C(=O)N[C@@H](CCCCN)C(=O)N[C@H](C(=O)N[C@@H](CO)C(=O)N1CCC[C@H]1C(=O)N[C@@H](CCC(N)=O)C(=O)NCC(=O)N[C@@H](Cc1ccc(O)cc1)C(N)=O)[C@@H](C)CC)C(C)C)[C@@H](C)O` [AM], the isoelectric point (Isoelectric point) is reported as 9.7 and 10.2, the “clonal growth in soft agar” value (MCF-7 [1]) is reported as “elevated clonal growth” and the “growth suppression by synthetic AM alone” value (MCF-7 [2]; AM 10 μM (FIG. 12B)) is reported as “≈ 10%”. The “reversal of MoAb-G6 growth inhibition by exogenous AM” value (MCF-7 [2]; MCF-7) was “abrogated”, the “growth suppressive activity against S. aureus” value (S. aureus) was “ineffective; also recorded: no apparent growth suppressive activity” and the “antimicrobial activity against P. aeruginosa, 24 hours versus 6 hours” value (P. aeruginosa) was “greater antimicrobial activity”. For the same molecule, the “activity against E. coli” value (E. coli; after 6 hours of incubation) was “activity”, the “growth inhibitory activity against E. coli, comparative” value (E. coli; microdilution, 6 hours, FIG. 22) was “higher growth inhibitory activity than albumin” and the “antimicrobial effect against C. albicans” value (C. albicans) was 73%±8.1. For the same molecule, the “activity against C. albicans” value (C. albicans; after 6 hours of incubation) was “activity”.

— patent US7939639B2, “Functional role of adrenomedullin (AM) and the gene related product (PAMP) in human pathology and physiology” (The United States of America as represented by the …, priority 1995, dated 2011)
